Activity calls are given as the source filed them.
Experiments:
[1] = molecular target: Melanocortin receptor 4 (Homo sapiens, UniProt P32245); test: MC4R antagonist potency on cAMP, dose response, cell-based, TR-FRET, biased antagonists (AID 602298); type: functional;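 further: antagonist potency against agonist-stimulated cAMP production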
[2] = nonselective inhibitors of cellular cAMP signaling, dose response, counter-screen for MC4R biased antagonist project, cell-based, TR-FRET cAMP detection (AID 602305); type: functional;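 further: U2OS cells stimulated with forskolin near its EC80 as the cAMP inducer; potency is for inhibition of forskolin-stimulated cAMP signaling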
[3] = tested on: A-375; test: A375 melanoma cell viability reduction, dose response, counter-screen for MITF modulator project, cherry-pick samples, set 2 (AID 540335); type: functional, cell-based; details: Homo sapiens
[4] = molecular target: T1, Microphthalmia-associated transcription factor (Homo sapiens, UniProt O75030); test: TRPM1 promoter luciferase signal decrease, dose response, MITF inhibitor project, cell-based, SK-MEL-5, cherry-picked, set 3 (AID 493073); type: functional
T1 sequence (O75030 whole entry): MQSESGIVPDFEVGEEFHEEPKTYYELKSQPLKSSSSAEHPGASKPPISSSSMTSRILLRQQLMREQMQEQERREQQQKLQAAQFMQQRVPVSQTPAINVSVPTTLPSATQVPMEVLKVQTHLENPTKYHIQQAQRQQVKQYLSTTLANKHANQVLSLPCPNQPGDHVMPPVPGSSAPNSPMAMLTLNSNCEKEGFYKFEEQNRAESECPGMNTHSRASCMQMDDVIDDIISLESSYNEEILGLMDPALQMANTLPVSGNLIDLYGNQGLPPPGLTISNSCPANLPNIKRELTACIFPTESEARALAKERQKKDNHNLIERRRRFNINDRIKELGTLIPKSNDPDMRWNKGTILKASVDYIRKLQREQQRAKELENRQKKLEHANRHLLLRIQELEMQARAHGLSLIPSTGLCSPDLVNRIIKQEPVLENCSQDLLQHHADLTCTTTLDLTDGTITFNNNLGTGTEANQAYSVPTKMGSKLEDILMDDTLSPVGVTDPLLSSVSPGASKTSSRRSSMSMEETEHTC

[5] = molecular target: T2, Serine/threonine-protein phosphatase (Candida dubliniensis (strain CD36 / CBS 7987 / NCPF 3949 / NRRLY-17841) (Yeast), UniProt B9W6M3); test: calcineurin pathway inhibitors in yeast reporter, dose response, S. cerevisiae, CDRE-lacZ, luminescence, secondary (AID 2388); type: functional, cell-based;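 further: yeast reporter cells carrying a calcineurin-responsive lacZ construct stimulated with calcium chloride; luminescent beta-galactosidase reporter signal in whole cells rather than isolated phosphatase activity; potency for inhibition where a drop in reporter signal means calcineurin blockade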
T2 sequence (B9W6M3 whole entry): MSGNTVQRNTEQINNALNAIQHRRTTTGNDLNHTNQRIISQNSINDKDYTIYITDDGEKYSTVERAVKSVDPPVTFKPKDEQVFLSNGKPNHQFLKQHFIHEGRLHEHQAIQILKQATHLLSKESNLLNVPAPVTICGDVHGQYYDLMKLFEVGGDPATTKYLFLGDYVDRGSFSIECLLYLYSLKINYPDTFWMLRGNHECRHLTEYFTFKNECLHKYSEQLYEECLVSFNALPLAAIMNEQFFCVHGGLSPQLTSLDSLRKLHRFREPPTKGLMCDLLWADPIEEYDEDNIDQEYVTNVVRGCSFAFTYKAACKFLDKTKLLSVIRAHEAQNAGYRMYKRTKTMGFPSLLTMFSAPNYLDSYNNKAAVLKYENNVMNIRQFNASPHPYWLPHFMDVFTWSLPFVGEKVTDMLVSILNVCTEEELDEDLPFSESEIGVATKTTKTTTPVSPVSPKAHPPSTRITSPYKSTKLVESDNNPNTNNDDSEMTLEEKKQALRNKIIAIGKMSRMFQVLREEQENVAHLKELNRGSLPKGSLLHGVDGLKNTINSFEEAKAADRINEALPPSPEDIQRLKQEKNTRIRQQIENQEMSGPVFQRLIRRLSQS

[6] = inhibitors of intracellular T. cruzi replication, confirmation, NIH3T3 host cells, beta-gal luminescence (AID 2044); type: functional, cell-based;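 further: intracellular parasites grown in NIH/3T3 mouse fibroblasts as host cells; luminescent beta-galactosidase reporter signal from transgenic T. cruzi replicating inside host cells; inhibitors lower the luminescence signal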
[7] = C. albicans growth with fluconazole, confirmation, fluorescence, retest (AID 2467); type: functional, cell-based
[8] = NIH-3T3 fibroblast cytotoxicity, dose response, cytotoxicity control, cell-based, fluorescence, Alamar Blue, secondary assay (AID 2327); type: functional;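 further: NIH-3T3 mouse fibroblasts cultured with fluconazole at 8 µg/mL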
[9] = molecular target: ATP-dependent molecular chaperone HSP82 (Candida albicans (strain WO-1) (Yeast), UniProt C4YTQ8); test: loss of DOC-induced GRE-beta-galactosidase reporter signal, dose response, Hsp90 inhibitor project, S. cerevisiae, luminescence (AID 2400); type: functional, cell-based;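 further: beta-galactosidase luminescence from glucocorticoid response element reporter as proxy for Hsp90 function; inhibitor potency where signal loss means Hsp90 inhibition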
[10] = cytotoxicity toward NIH3T3 fibroblasts, dose response, counter-screen, cell-based, ATP luminescence, mouse fibroblasts (AID 2010); type: functional;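 further: cells exposed to compound for about 90 hours before reading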
[11] = molecular target: Beta-galactosidase (Escherichia coli, UniProt Q8VNN2); test: beta-galactosidase enzyme inhibitors and activators, dose response, artefact control for CCR6 antagonist project, biochemical, E. coli enzyme, set 3 (AID 504712); type: functional
[12] = tested on: Vero; test: cells; type: functional; details: Chlorocebus sabaeus
[13] = tested on: Vero; test: cells; type: functional, cell-based; details: Chlorocebus sabaeus
[14] = HEp-2 cell cytotoxicity, dose response, cytotoxicity control for RSV inhibitor project, HTS (AID 2410); type: functional; details: human respiratory syncytial virus
[15] = molecular target: T3, Latent membrane protein 1 (Human herpesvirus 4 (strain B95-8), UniProt P03230); test: TES1-eGFP NF-kB reporter inhibition versus Tet-On dsRED, dose response, selectivity assay for LMP1 NF-kB inhibitor project, imaging, HEK293T, dual-color eGFP/dsRED, cherry-picks (AID 588398); type: functional, cell-based
T3 sequence (P03230 whole entry): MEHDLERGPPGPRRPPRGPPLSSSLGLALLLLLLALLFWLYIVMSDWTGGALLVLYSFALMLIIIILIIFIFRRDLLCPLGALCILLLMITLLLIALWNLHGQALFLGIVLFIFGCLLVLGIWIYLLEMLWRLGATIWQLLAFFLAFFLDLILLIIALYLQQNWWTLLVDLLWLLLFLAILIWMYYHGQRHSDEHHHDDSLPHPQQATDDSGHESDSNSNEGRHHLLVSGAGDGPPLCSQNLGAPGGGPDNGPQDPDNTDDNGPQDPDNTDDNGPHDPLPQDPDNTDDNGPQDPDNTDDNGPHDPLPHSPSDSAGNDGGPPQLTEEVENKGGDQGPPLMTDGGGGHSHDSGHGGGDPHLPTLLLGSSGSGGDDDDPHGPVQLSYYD

[16] = tested on: HEK293; test: inhibitors of LMP1-driven NF-kB reporter, dose response, cell-based, HEK293, luciferase, cherry-pick (AID 588343); type: functional; details: Homo sapiens
[17] = molecular target: Dual specificity protein kinase CLK1 (Homo sapiens, UniProt P49759); test: CLK1 kinase inhibitors, off-target check, dose response, selectivity assay for Dyrk1A inhibitor project, biochemical, cherry-picked samples (AID 588811)
[18] = molecular target: Dual specificity tyrosine-phosphorylation-regulated kinase 1A (Rattus norvegicus, UniProt Q63470); type: biochemical, Homo sapiens
[19] = molecular target: T4, Mannose-6-phosphate isomerase (Homo sapiens, UniProt P34949); test: human PMI inhibitors, high substrate, primary screen, biochemical, fluorescence intensity, high mannose 6-phosphate (AID 1220)
T4 sequence (P34949 whole entry): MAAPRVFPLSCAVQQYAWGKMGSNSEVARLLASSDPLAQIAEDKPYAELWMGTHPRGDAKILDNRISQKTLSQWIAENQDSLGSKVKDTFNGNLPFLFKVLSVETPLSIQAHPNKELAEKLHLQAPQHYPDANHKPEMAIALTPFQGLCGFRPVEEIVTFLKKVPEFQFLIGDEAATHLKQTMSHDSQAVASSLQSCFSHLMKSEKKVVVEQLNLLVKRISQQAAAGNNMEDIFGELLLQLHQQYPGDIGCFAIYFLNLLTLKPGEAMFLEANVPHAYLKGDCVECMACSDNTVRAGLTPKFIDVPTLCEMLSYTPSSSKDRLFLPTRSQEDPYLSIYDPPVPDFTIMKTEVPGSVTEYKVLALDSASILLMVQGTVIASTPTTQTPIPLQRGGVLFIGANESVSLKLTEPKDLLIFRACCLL

[20] = molecular target: T5, Nucleotide-binding oligomerization domain-containing protein 1 (Homo sapiens, UniProt Q9Y239); test: NOD1 signaling inhibitors, SAR follow-up, revised (AID 2333); type: functional
T5 sequence (Q9Y239 whole entry): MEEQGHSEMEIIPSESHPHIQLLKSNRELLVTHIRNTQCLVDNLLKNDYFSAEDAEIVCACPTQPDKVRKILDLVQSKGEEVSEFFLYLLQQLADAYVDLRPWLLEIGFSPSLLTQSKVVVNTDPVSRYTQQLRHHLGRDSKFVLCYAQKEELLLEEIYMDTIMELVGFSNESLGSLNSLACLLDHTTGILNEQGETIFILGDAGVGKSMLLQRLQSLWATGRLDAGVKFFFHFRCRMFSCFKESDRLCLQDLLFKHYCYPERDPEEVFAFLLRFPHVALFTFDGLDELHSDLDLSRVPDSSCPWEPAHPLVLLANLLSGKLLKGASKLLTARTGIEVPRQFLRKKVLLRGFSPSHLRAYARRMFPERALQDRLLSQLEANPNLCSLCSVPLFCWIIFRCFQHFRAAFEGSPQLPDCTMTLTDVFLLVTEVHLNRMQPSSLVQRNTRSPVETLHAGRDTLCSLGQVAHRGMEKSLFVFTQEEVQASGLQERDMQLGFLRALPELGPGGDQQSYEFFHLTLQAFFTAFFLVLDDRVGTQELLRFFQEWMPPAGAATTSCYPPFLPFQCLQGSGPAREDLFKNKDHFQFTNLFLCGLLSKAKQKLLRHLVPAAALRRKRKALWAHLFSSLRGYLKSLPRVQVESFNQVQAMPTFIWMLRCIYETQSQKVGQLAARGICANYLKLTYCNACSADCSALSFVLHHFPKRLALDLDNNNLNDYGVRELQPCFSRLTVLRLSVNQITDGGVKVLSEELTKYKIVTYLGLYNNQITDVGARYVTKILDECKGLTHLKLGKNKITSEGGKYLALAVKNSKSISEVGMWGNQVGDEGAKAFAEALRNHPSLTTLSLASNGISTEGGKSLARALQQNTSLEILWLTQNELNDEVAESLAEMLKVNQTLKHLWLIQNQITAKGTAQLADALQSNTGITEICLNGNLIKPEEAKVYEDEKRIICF

[21] = molecular target: Tumor necrosis factor (Homo sapiens, UniProt P01375); test: TNFa-triggered NF-kB activation inhibitors, SAR follow-up, cell-based, revised (AID 2337); type: functional
[22] = tested on: HEK293; test: cells; details: Homo sapiens
[23] = molecular target: Nucleotide-binding oligomerization domain-containing protein 2 (Homo sapiens, UniProt Q9HC29); test: PubChem AID 2334; type: functional
[24] = cells; type: functional, cell-based
[25] = tested on: BJ; test: cytotoxicity toward BJ-TERT fibroblasts, dose response, cell-based, RAS-independent, luminescence (AID 1933); type: functional; details: Homo sapiens
[26] = cells; type: functional, cell-based; remark: listed apart in the source
[27] = cytotoxicity toward DRD oncogenic fibroblasts, dose response, cell-based, non-viral oncogenic, luminescence (AID 1934); type: functional; details: Homo sapiens
[28] = tested on: BJ; test: cells; type: functional, cell-based; details: Homo sapiens
[29] = tested on: INS1; test: beta cell apoptosis inhibitors, cytokine rescue, dose response, luminescence, retest (AID 449756); type: functional, cell-based; details: Rattus norvegicus;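 further: cell death triggered by IL-1 beta plus TNF-alpha plus IFN-gamma mixture; protective hits raise ATP signal compared with cytokine alone wells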

Sequence of Dual specificity protein kinase CLK1 (P49759 whole entry): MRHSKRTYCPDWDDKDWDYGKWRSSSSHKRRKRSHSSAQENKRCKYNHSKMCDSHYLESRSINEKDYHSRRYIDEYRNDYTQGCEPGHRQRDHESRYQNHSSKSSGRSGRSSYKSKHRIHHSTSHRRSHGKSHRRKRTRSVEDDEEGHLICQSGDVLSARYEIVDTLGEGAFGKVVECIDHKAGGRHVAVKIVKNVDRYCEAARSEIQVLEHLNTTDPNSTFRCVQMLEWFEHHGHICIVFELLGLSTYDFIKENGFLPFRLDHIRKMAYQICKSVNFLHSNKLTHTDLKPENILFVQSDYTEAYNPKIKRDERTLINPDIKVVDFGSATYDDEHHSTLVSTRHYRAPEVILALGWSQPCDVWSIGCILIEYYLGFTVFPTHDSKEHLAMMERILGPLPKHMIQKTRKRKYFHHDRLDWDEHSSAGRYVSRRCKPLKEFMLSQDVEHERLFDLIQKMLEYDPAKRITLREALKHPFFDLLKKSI
Sequence of Melanocortin receptor 4 (P32245 whole entry): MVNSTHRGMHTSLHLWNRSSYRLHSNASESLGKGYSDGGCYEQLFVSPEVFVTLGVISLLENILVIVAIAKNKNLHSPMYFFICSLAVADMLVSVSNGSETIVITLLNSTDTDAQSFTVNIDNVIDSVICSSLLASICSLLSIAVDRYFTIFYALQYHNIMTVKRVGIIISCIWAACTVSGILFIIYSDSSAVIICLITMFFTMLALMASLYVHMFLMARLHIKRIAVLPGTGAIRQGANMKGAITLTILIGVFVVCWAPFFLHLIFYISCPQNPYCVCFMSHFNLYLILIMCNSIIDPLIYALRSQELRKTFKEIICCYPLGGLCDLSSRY
Sequence of Nucleotide-binding oligomerization domain-containing protein 2 (Q9HC29 whole entry, the tested form may be a part): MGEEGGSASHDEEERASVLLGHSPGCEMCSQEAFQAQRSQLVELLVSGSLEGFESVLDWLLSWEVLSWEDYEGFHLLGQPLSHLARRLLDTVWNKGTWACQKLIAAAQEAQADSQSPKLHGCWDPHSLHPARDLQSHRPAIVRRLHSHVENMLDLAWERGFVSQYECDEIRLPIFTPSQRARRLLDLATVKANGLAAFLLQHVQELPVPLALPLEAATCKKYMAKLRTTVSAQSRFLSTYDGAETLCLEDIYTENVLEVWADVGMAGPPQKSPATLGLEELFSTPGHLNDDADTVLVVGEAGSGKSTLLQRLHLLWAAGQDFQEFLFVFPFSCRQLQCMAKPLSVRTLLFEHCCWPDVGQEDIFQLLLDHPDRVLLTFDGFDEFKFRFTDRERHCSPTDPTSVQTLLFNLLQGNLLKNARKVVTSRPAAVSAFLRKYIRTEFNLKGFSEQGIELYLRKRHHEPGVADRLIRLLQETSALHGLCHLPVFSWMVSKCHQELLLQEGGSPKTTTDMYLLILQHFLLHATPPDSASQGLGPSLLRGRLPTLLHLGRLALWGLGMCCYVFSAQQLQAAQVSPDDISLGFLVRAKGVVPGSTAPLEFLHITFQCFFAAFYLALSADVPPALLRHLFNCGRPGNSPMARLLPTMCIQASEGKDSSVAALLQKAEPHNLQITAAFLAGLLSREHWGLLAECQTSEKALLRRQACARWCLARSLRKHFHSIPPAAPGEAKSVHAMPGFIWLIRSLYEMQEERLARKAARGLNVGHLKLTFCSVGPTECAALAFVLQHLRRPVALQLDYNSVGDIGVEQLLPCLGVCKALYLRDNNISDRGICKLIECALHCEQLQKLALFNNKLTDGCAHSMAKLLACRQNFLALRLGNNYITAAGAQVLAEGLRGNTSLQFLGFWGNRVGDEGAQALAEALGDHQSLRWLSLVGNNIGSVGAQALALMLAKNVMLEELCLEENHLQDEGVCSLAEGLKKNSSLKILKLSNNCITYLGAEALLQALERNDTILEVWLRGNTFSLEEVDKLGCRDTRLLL
Sequence of ATP-dependent molecular chaperone HSP82 (C4YTQ8 whole entry): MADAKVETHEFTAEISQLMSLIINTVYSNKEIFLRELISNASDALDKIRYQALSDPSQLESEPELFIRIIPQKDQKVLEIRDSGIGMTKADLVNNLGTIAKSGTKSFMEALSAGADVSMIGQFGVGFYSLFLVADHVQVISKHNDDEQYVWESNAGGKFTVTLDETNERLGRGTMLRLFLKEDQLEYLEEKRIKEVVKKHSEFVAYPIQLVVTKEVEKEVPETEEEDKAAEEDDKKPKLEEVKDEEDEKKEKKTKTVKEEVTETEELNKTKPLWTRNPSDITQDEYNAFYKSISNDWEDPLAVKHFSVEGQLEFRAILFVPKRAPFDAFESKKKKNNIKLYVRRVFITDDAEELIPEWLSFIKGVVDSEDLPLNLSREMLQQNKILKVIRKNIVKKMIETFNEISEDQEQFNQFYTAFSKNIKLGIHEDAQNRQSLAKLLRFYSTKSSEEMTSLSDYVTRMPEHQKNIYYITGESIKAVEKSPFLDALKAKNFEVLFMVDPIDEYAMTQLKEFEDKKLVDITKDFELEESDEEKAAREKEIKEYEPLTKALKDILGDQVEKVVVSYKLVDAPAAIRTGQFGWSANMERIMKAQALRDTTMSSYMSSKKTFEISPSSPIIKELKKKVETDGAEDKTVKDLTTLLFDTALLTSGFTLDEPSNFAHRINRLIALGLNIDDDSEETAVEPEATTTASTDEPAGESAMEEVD
Sequence of Beta-galactosidase (Q8VNN2 whole entry): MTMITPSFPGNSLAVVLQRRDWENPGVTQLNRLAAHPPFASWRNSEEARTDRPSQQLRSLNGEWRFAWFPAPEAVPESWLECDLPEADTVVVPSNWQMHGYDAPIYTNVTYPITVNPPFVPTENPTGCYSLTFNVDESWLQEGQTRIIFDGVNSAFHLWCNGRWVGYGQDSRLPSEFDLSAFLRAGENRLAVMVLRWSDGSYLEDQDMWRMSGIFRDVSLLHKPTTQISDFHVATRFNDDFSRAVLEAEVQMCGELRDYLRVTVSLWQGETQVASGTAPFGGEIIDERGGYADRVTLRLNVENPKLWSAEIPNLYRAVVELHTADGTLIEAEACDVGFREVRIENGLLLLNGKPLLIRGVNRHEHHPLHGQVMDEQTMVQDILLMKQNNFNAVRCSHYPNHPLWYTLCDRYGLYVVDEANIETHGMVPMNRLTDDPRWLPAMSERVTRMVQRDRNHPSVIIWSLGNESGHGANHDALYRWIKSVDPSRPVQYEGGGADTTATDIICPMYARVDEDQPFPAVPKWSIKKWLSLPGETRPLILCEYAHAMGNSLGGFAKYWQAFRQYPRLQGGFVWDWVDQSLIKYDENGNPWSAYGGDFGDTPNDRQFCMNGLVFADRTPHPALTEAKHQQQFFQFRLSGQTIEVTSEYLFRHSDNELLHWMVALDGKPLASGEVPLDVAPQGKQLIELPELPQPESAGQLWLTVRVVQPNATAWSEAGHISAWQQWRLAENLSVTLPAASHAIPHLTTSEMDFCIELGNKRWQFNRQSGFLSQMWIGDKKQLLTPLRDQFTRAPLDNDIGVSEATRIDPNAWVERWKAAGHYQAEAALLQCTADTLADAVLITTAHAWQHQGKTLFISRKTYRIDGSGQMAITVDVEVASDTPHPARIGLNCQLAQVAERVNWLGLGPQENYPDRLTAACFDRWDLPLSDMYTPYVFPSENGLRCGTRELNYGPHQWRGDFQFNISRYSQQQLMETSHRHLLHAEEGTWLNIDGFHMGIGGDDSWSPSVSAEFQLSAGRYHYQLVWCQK
Sequence of Tumor necrosis factor (P01375 whole entry): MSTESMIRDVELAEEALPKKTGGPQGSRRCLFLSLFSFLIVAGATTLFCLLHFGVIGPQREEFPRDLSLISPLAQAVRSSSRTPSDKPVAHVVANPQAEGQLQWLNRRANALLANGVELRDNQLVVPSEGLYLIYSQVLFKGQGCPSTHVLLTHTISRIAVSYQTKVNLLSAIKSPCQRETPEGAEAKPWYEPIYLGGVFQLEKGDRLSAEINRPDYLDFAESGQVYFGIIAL

O=C1c2cccc([N+](=O)[O-])c2C(=O)N1c1ccccc1
IC50 [1]: > 64.6 µM (inactive)
IC50 [2]: > 64.6 µM (inactive)

CCOc1c(Br)cc(CNC2CCCCCCC2)cc1OC
AC50 [3]: 21.9 µM (active)
AC50 [4]: 20.5 µM (active)

CC(=O)NC(c1ccc(C)cc1)c1cc([N+](=O)[O-])c2cccnc2c1O (centres undefined)
EC50 [5]: > 180 µM (inactive)
EC50 [6]: 1.16 µM (active)
EC50 [7]: 0.334 µM (active)
EC50 [8]: 47.2 µM (active)
EC50 [9]: 40.3 µM (active)
EC50 [10]: < 6 µM (inconclusive)
IC50 [11]: > 66.6 µM (inactive)

Cc1csc(NC(=O)Cc2coc3cc(C)c(C(C)C)cc23)n1
CC50 [12]: 23 µM (active)
IC50 [13]: 9.7 µM (active)
CC50 [14]: 6.08 µM (active)

CCOC(=O)CC(NC(=O)C(Cc1ccc(N(CCCl)CCCl)cc1)NC(C)=O)C(=O)OCC (centres undefined)
AC50 [15]: 16.2 µM (active)
AC50 [16]: 1.65 µM (active)

CCOc1ccc2nc(NC(=O)C3CCCN(S(=O)(=O)c4cccc5nonc45)C3)sc2c1 (centres undefined)
EC50 [6]: 2.11 µM (active)
IC50 [1]: > 64.6 µM (inactive)
IC50 [2]: > 64.6 µM (inactive)
EC50 [10]: > 60 µM (not active)

c1csc(CCNc2ncnc3ccc(-c4ccc5c(c4)OCO5)cc23)c1
AC50 [17]: < 0.00195 µM (active)

O=C(O)COc1ccc(/C=C/c2nc3ccc([N+](=O)[O-])cc3s2)cc1
AC50 [17]: 0.4 µM (active)
AC50 [18]: 0.348 µM (active)
EC50 [6]: > 60 µM (not active)
EC50 [10]: > 60 µM (not active)

COc1ccc(NC(S)=Nc2cccc3cnccc23)cc1
AC50 [18]: 7.84 µM (active)
IC50 [19]: > 50 µM (not active)

O=C(NC1CCCc2c1cnn2-c1ccccc1F)c1ccnn1-c1ccccc1 (centres undefined)
IC50 [20]: > 20 µM (inactive)
IC50 [21]: > 20 µM (inactive)
IC50 [22]: > 20 µM (inactive)
IC50 [23]: > 20 µM (inactive)

CC(NC(=O)c1ccc([N+](=O)[O-])o1)C1CC2CCC1C2 (centres undefined)
CC50 [12]: 19.9 µM (active)
IC50 [13]: > 25 µM (active)

c1cncc(CNc2ccnc(-c3ccc4[nH]ncc4c3)n2)c1
AC50 [17]: 0.385 µM (active)

O=C1CSC(=S)N1Cc1ccccc1
AC50 [15]: 119 µM (active)
AC50 [16]: 2.11 µM (active)

CCN(CC)c1ccc(/C=N/NC(=O)c2cnccn2)c(O)c1
EC50 [24]: 8.38 µM (active)
AC50 [15]: 13.2 µM (active)
EC50 [25]: 5.61 µM (active)
EC50 [26]: 40 µM (active)
EC50 [27]: 2.17 µM (active)
AC50 [16]: 5.61 µM (active)
EC50 [28]: 5.54 µM (active)
AC50 [29]: 0.55 µM (active)
